Test results: ChEMBL document CHEMBL6109100, “Discovery of novel benzoxazole analogues as potential anticancer agent selectively targeting aromatase” (Bioorg Med Chem, 2025)

Assays:
[1] = tested on: MCF7; test: Cytotoxicity against human MCF7 cells assessed as reduction in cell viability measured after 48 hrs by SRB assay; format: functional
[2] = target: T1, Aromatase (Homo sapiens, UniProt P11511); test: Inhibition of aromatase in human MCF7 cells using androstenedione as substrate measured after 2 hrs; format: cell-based
T1 sequence (P11511 whole entry): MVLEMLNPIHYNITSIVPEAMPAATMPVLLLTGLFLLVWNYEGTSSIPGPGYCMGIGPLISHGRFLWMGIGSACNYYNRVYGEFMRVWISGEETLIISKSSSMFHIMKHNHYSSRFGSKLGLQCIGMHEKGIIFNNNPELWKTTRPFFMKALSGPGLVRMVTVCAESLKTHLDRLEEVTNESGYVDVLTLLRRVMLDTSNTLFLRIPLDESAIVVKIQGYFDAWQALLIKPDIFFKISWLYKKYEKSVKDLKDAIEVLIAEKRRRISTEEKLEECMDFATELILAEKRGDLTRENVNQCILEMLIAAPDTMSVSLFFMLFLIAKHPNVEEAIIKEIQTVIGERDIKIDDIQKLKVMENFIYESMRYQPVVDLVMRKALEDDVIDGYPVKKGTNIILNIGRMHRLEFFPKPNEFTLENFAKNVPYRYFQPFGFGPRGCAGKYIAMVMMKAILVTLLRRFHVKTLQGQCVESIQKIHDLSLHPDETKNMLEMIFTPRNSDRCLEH

[3] = target: Carbonic anhydrase 2 (Homo sapiens, UniProt P00918); test: Inhibition of CA2 (unknown origin) using p-nitrophenyl acetate as substrate preincubated for 10 mins followed by substrate addition and measured after 30 mins by spectrophotometry
[4] = tested on: T47D; test: Cytotoxicity against human T47D cells assessed as reduction in cell viability measured after 48 hrs by SRB assay; format: functional
[5] = tested on: MDA-MB-231; test: Cytotoxicity against human MDA-MB-231 cells assessed as reduction in cell viability measured after 48 hrs by SRB assay; format: functional
[6] = Cytotoxicity against African green monkey Vero cells assessed as reduction in cell viability measured after 48 hrs by SRB assay; format: toxicity, cell-based; settings: chlorocebus sabaeus
[7] = target: Histone deacetylase; test: Inhibition of HDAC (unknown origin); format: protein assay, Homo sapiens
[8] = tested on: MDA-MB-468; test: Cytotoxicity against human MDA-MB-468 cells assessed as reduction in cell viability measured after 48 hrs by SRB assay; format: functional
[9] = target: Poly [ADP-ribose] polymerase 2 (Homo sapiens, UniProt Q9UGN5); test: Inhibition of PARP-2 (unknown origin)
[10] = tested on: BT-549; test: Cytotoxicity against human BT-549 cells assessed as reduction in cell viability measured after 48 hrs by SRB assay; format: functional
[11] = tested on: RPMI-8226; test: Cytotoxicity against human RPMI-8226 cells assessed as reduction in cell viability measured after 48 hrs by SRB assay; format: functional, cell-based; settings: RPMI-8226, 48 h
[12] = target: T2, Aromatase (Rattus norvegicus, UniProt P22443); test: Inhibition of rat aromatase measured after 2 hrs by ELISA
T2 sequence (P22443 whole entry): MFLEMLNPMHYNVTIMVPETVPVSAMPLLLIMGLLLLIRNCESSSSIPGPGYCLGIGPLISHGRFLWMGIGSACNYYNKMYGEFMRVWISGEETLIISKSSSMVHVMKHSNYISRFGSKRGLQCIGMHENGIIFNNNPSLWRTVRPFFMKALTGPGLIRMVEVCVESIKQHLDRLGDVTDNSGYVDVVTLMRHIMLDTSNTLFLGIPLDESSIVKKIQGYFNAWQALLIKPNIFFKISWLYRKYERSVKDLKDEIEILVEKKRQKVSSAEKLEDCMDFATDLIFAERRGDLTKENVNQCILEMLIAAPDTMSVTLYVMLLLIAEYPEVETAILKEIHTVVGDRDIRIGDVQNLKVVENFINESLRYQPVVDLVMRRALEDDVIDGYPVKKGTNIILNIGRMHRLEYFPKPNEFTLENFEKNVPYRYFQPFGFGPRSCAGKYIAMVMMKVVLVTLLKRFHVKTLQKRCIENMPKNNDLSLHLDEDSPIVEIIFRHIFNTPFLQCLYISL

[13] = tested on: MDA-MB-231; test: Cytotoxicity against human MDA-MB-231 cells assessed as reduction in cell viability measured after 48 hrs by MTT assay; format: functional, cell-based; settings: MDA-MB-231, 48 h

Poly [ADP-ribose] polymerase 2, sequence (Q9UGN5 whole entry): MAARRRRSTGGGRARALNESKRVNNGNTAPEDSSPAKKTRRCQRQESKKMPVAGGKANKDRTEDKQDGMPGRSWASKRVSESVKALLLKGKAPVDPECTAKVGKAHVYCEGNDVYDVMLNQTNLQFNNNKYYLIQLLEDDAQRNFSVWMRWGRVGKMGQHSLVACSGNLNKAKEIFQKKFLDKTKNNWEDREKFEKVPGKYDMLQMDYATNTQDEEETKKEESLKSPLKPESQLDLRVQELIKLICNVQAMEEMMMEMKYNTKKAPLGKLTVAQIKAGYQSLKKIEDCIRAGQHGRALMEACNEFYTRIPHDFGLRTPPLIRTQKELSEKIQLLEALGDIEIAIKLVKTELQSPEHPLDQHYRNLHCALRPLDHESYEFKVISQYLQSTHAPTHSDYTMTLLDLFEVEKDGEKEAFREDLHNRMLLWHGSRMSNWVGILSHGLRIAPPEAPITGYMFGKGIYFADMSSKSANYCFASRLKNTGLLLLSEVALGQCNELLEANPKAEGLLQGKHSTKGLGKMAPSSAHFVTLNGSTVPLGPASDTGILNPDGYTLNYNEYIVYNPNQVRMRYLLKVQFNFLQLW

| SMILES | GI50 [1] [µM] | other results |
| --- | --- | --- |
| CS(=O)(=O)N1CCN(Cc2nc3cc(F)ccc3o2)CC1 | 29.8 |  |
| O=S(=O)(c1ccccc1)N1CCN(Cc2nc3cc(F)ccc3o2)CC1 | 8.56 |  |
| O=S(=O)(c1ccc(F)cc1)N1CCN(Cc2nc3cc(F)ccc3o2)CC1 | 6.52 |  |
| O=[N+]([O-])c1cccc(S(=O)(=O)N2CCN(Cc3nc4cc(F)ccc4o3)CC2)c1 | 3.25 |  |
| O=[N+]([O-])c1ccccc1S(=O)(=O)N1CCN(Cc2nc3cc(F)ccc3o2)CC1 | 5.95 |  |
| O=S(=O)(c1cccc2ccccc12)N1CCN(Cc2nc3cc(F)ccc3o2)CC1 | 12.5 |  |
| CN(C)S(=O)(=O)N1CCN(Cc2nc3cc(F)ccc3o2)CC1 | 18.3 |  |
| CCS(=O)(=O)N1CCN(Cc2nc3cc(F)ccc3o2)CC1 | 14.4 |  |
| O=[N+]([O-])c1ccc(S(=O)(=O)N2CCN(Cc3nc4cc(F)ccc4o3)CC2)cc1 | 1.02 |  |
| O=Cc1ccc(S(=O)(=O)N2CCN(Cc3nc4cc(F)ccc4o3)CC2)cc1 | 2.45 |  |
| COc1ccccc1S(=O)(=O)N1CCN(Cc2nc3cc(F)ccc3o2)CC1 | 4.63 |  |
| O=S(=O)(N1CCCCC1)N1CCN(Cc2nc3cc(F)ccc3o2)CC1 | 9.33 |  |
| O=S(=O)(N1CCOCC1)N1CCN(Cc2nc3cc(F)ccc3o2)CC1 | 10.3 |  |
| CC(C)(C)c1ccc(S(=O)(=O)N2CCN(Cc3nc4cc(F)ccc4o3)CC2)cc1 | 0.22 | IC50 [2]: 0.0649 µM; IC50 [3]: 4.1 µM; GI50 [4]: 2.55 µM; GI50 [5]: 0.49 µM; GI50 at 48 h [6]: 67.1 µM; IC50 [7]: 1.125 µM; GI50 [8]: 0.87 µM; IC50 [9]: 0.739 µM; GI50 [10]: 1.73 µM |
| CC(C)S(=O)(=O)N1CCN(Cc2nc3cc(F)ccc3o2)CC1 | 21.6 |  |
| Cc1ccc(S(=O)(=O)N2CCN(Cc3nc4cc(F)ccc4o3)CC2)cc1 | 1.73 |  |
| CN1CCN(S(=O)(=O)N2CCN(Cc3nc4cc(F)ccc4o3)CC2)CC1 | 7.37 |  |
| O=S(=O)(C1CC1)N1CCN(Cc2nc3cc(F)ccc3o2)CC1 | 25.1 |  |
| Cc1nc(Nc2nc3ccccc3o2)nc(-c2cccc([N+](=O)[O-])c2)c1C(=O)Nc1ccc(F)cc1Cl |  | IC50 [11]: 0.72 µM |
| CC(C)(C#N)c1cc(Cn2cncn2)cc(C(C)(C)C#N)c1 [ANASTROZOLE] |  | IC50 [12]: 3.93 µM; IC50 [13]: 1.21 µM |
| COc1cccc2c1C(=O)c1c(O)c3c(c(O)c1C2=O)C[C@@](O)(C(=O)CO)C[C@@H]3O[C@H]1C[C@H](N)[C@H](O)[C@H](C)O1 [DOXORUBICIN] | 0.89 | GI50 [4]: 3.78 µM; GI50 [5]: 0.14 µM; GI50 at 48 h [6]: 143 µM; GI50 [8]: 0.53 µM; GI50 [10]: 2.01 µM |
| N#Cc1ccc(C(c2ccc(C#N)cc2)n2cncn2)cc1 [LETROZOLE] |  | IC50 [12]: 0.29 µM; IC50 [13]: 1.27 µM |
